{"source": "patent US20040146554A1", "about": "“Method for the administration of acid-labile drugs” (priority 2000, published 2004)", "key": {"[1]": {"experiment": "Suspending PPI capsule granules or tablets in calcium carbonate suspension", "assay_type": "physicochemical", "conditions": "granular contents of capsule (20 mg omeprazole, 30 mg lansoprazole) in 10 cc of 4 gm % or 8 gm % calcium carbonate suspension", "method": "More specifically, suspensions of calcium carbonate were produced by dissolving either 400 mg or 800 mg of calcium carbonate in 10 cc of water, resulting in suspensions of 4 gm % and 8 gm %, respectively. In separate 10 cc preparations of either strength of the calcium carbonate suspension, the granular contents of a 20 mg omeprazole capsule, a 30 mg lansoprazole capsule, a 20 mg rabeprazole tablet, and a 40 mg pantoprazole tablet were suspended. In approximately 30 minutes, the granules of the omeprazole and lansoprazole capsules were in complete suspension. In approximately two hours, the contents of the tablets of rabeprazole and pantoprazole had completely suspended."}, "[2]": {"test_system": "gastric acid secretion", "conditions": "intact granules suspended in orange juice, via gastrostomy tube; cited from earlier work"}}, "data": [{"smiles": "Cc1c(OCC(F)(F)F)ccnc1C[S+]([O-])c1nc2ccccc2[nH]1", "note": "(centres unmarked) [lansoprazole]", "values": [{"measurement": "time until granules were in complete suspension", "setting": "[1]", "value": "approximately 30 minutes"}, {"measurement": "suppression of gastric acid secretion", "setting": "[2]", "value": "produced the desired effect of suppressing gastric acid secretion"}]}]}
